Reference: PubChem BioAssay (NCI)
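Test compounds were applied to cells in 96-well plates for 48 hours at 5 doses. TGI: concentration producing complete growth inhibition.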

Experiments:
Assay in all cases: NCI tumour cell line growth inhibition, 48 h
SK-MEL-5 melanoma = test system: SK-MEL-5 melanoma
UO-31 renal = test system: UO-31 renal
HCT-116 colon = test system: HCT-116 colon
MOLT-4 leukemia = test system: MOLT-4 leukemia
HCC-2998 colon = test system: HCC-2998 colon
PC-3 prostate = test system: PC-3 prostate
OVCAR-4 ovarian = test system: OVCAR-4 ovarian
ACHN renal = test system: ACHN renal
SNB-19 CNS = test system: SNB-19 CNS
HL-60(TB) leukemia = test system: HL-60(TB) leukemia

| Structure (SMILES) | TGI (SK-MEL-5 melanoma) [µM] | TGI (UO-31 renal) [µM] | TGI (HCT-116 colon) [µM] | TGI (MOLT-4 leukemia) [µM] | TGI (HCC-2998 colon) [µM] | TGI (PC-3 prostate) [µM] | TGI (OVCAR-4 ovarian) [µM] | TGI (ACHN renal) [µM] | TGI (SNB-19 CNS) [µM] | TGI (HL-60(TB) leukemia) [µM] |
| --- | --- | --- | --- | --- | --- | --- | --- | --- | --- | --- |
| COC(=O)c1c2c(cc3c1CC1(Cc4cc5c(c(C=O)c4C1)CCC5)C3)CCC2 (stereo not given) | 37.2 | 71.8 | 60 | 59.1 | 95.2 | > 100 | > 100 | > 100 | > 100 | 51.5 |
| Cc1c(C)c2c(c(N)c1C#N)C(=O)N(N)C2=O | > 100 | > 100 | > 100 | > 100 | > 100 | > 100 | > 100 | > 100 | > 100 | > 100 |
| O=C(O)c1c(CC(Cc2ccc3c(c2)CCC3)C(=O)O)ccc2c1CCC2 (stereo not given) | > 100 | > 100 | > 100 | > 100 | > 100 | > 100 | > 100 | > 100 | > 100 | > 100 |
| C[n+]1cccc2ccc3cccnc3c21 | 42 | > 100 | > 100 | > 100 | > 100 | > 100 | > 100 | > 100 | > 100 | > 100 |
| COc1ccc(-c2ccc(C(=O)C=P(c3ccccc3)(c3ccccc3)c3ccccc3)cc2)cc1 | 22.4 | 13 | 32.3 | 10.9 | 15.2 | 49 | 25 | 30.7 | > 100 | 6.77 |
| CCCCCC[C@H]([C@H](C)O)n1cnc2c(N)ncnc21 | > 100 | > 100 | > 100 | > 100 | > 100 | > 100 | > 100 | > 100 | > 100 | > 100 |
| Nc1[nH]c(=O)nc2c1ncn2C1OC(CO)C(O)C1O (stereo not given) | > 100 | > 100 | > 100 | 63.3 | 88.9 | 60.2 | > 100 | > 100 | > 100 | 54.9 |
| C/C(=C1\N=C(c2ccccc2)OC1=O)c1ccccc1 | > 100 | > 100 | > 100 | > 100 | > 100 | > 100 | > 100 | > 100 | > 100 | > 100 |
| C[C@]12CC[C@H]3[C@@H](CC=C4C[C@@H](N5CCCC5)CC[C@@]43C)[C@@H]1C[C@H](N1CCCCC1)[C@@H]2O | > 100 | > 100 | > 100 | > 100 | > 100 | > 100 | > 100 | > 100 | > 100 | > 100 |
| C=C1c2nc3ccccc3n2C=C(c2ccc(C)cc2)N1c1ccc(OC)cc1 | > 100 | > 100 | > 100 | > 100 | > 100 | > 100 | > 100 | > 100 | > 100 | 55.6 |
| COC1(CC[C@@H](C)COC2OC(CO)C(O)C(O)C2O)OC2C[C@H]3[C@@H]4CC[C@H]5C[C@@H](OC6OC(CO)C(OC7OC(CO)C(O)C(O)C7O)C(O)C6OC6OC(C)C(O)C(O)C6O)[C@H](O)C[C@]5(C)[C@H]4CC[C@]3(C)C2[C@@H]1C (stereo not given in full) | 3.36 | 3.31 | 3.67 | 8.14 | 3.24 | 3.45 | 3.96 | 3.33 | 3.55 | 5.38 |
| Cn1c(=O)c2c(nc3[nH]c(=O)c(Br)cn32)n(C)c1=O | > 100 | > 100 | > 100 | > 100 | > 100 | > 100 | > 100 | > 100 | > 100 | > 100 |
| COc1cc(CCNC2=CC(=O)c3nc[nH]c3C2=O)ccc1O | 27.6 | > 100 | 48 | 89.1 | 43 | > 100 | 29 | > 100 | 33.3 | 60.8 |
| N#Cc1nc(CCc2nc(C#N)c(N)o2)oc1N | > 10 | > 10 | > 10 | > 10 | > 10 | > 10 | > 10 | > 10 | > 10 | > 10 |
| CN(CCCCCl)P(=O)(OCc1ccc([N+](=O)[O-])o1)OCC1OC(n2ccc(N)nc2=O)C(O)C1O (stereo not given) | 1.15 | > 100 | 25.9 | 11 | 12.6 | 43 | 29.1 | > 100 | 43.7 | 31.8 |
| CCN(CC)C(=S)SC(C(=O)Nc1nnc(-c2ccc(Cl)cc2)o1)c1ccccc1 (stereo not given) | 19.4 | 52.1 | 13.5 | > 100 | 16.9 | 28.3 | 18.6 | 26.3 | > 100 | > 100 |
